Laboratory results: PMC5218480 (PLoS ONE, 2017)

Tested on: MV-4-11 cells
Test: Gene expression microarray analysis (Affymetrix PrimeView) and GSEA
Assay type: cell-based, human
Design: RFU PODN (11730768_x_at) / Fold change /veh PODN (11730768_x_at) / RFU LINC00158 (11744669_a_at) / Fold change /veh LINC00158 (11744669_a_at) / RFU DUSP10 (11751237_a_at) / Fold change /veh DUSP10 (11751237_a_at) / RFU ID3 (11757404_x_at) / Fold change /veh ID3 (11757404_x_at) / RFU PLEKHG5 (11737974_s_at) / Fold change /veh PLEKHG5 (11737974_s_at) / RFU LRRC4B (11730491_at) / Fold change /veh LRRC4B (11730491_at) / RFU GIMAP4 (11747438_a_at) / Fold change /veh GIMAP4 (11747438_a_at) / RFU KRT8 (11758183_x_at) / Fold change /veh KRT8 (11758183_x_at) / RFU CNN1 (11734310_a_at) / Fold change /veh CNN1 (11734310_a_at) / RFU VPS37D (11726825_at) / Fold change /veh VPS37D (11726825_at) / RFU C10orf10 (11716522_x_at) / Fold change /veh C10orf10 (11716522_x_at) / RFU KIR2DL2 /// KIR2DL4 /// KIR2DL5A /// KIR2DL5B /// KIR2DS1 /// KIR2DS2 /// KIR2DS3 /// KIR2DS4 /// KIR3DL3 /// KIR3DL3 /// KIR3DS1 (11738374_at) / Fold change /veh KIR2DL2 /// KIR2DL4 /// KIR2DL5A /// KIR2DL5B /// KIR2DS1 /// KIR2DS2 /// KIR2DS3 /// KIR2DS4 /// KIR3DL3 /// KIR3DL3 /// KIR3DS1 (11738374_at) / RFU C1QL1 (11718748_at) / Fold change /veh C1QL1 (11718748_at) / RFU TMPRSS4 (11747572_a_at) / Fold change /veh TMPRSS4 (11747572_a_at) / RFU HAMP (11756126_x_at) / Fold change /veh HAMP (11756126_x_at) / RFU RNFT2 (11725882_a_at) / Fold change /veh RNFT2 (11725882_a_at) / RFU NR4A2 (11747474_a_at) / Fold change /veh NR4A2 (11747474_a_at) / RFU ABCC12 (11746883_a_at) / Fold change /veh ABCC12 (11746883_a_at) / RFU TMEM136 (11760407_x_at) / Fold change /veh TMEM136 (11760407_x_at) / RFU CLDN22 /// WWC2 (11732394_at) / Fold change /veh CLDN22 /// WWC2 (11732394_at) / RFU HLA-DPB1 (11760878_x_at) / Fold change /veh HLA-DPB1 (11760878_x_at) / RFU SPINT1 (11716480_a_at) / Fold change /veh SPINT1 (11716480_a_at) / RFU GAP43 (11754022_s_at) / Fold change /veh GAP43 (11754022_s_at) / RFU A4GNT (11735810_at) / Fold change /veh A4GNT (11735810_at) / RFU PRB3 (11715151_x_at) / Fold change /veh PRB3 (11715151_x_at) / RFU TUBB4B (11761932_at) / Fold change /veh TUBB4B (11761932_at) / RFU CAPN14 (11732068_a_at) / Fold change /veh CAPN14 (11732068_a_at) / RFU TMCC2 (11721928_a_at) / Fold change /veh TMCC2 (11721928_a_at) / RFU IRGQ (11745062_a_at) / Fold change /veh IRGQ (11745062_a_at) / RFU FAM174B (11720279_a_at) / Fold change /veh FAM174B (11720279_a_at) / RFU TMPRSS4 (11748680_a_at) / Fold change /veh TMPRSS4 (11748680_a_at) / RFU FAM212B (11763350_a_at) / Fold change /veh FAM212B (11763350_a_at) / RFU PLEKHG5 (11743358_a_at) / Fold change /veh PLEKHG5 (11743358_a_at) / RFU ZSCAN30 (11745921_a_at) / Fold change /veh ZSCAN30 (11745921_a_at) / RFU CMKLR1 (11741424_a_at) / Fold change /veh CMKLR1 (11741424_a_at) / RFU LOC101060620 /// MAPK8IP1 (11723275_at) / Fold change /veh LOC101060620 /// MAPK8IP1 (11723275_at) / RFU SPTSSB (11747773_x_at) / Fold change /veh SPTSSB (11747773_x_at) / RFU PRSS12 (11739890_at) / Fold change /veh PRSS12 (11739890_at) / RFU BIN1 (11741810_x_at) / Fold change /veh BIN1 (11741810_x_at) / RFU WNT11 (11732464_a_at) / Fold change /veh WNT11 (11732464_a_at) / RFU C10orf10 (11716521_a_at) / Fold change /veh C10orf10 (11716521_a_at) / RFU C5orf56 (11738089_at) / Fold change /veh C5orf56 (11738089_at) / RFU CYB561 (11721691_x_at) / Fold change /veh CYB561 (11721691_x_at) / RFU ANKRD19P (11752326_a_at) / Fold change /veh ANKRD19P (11752326_a_at) / RFU OR2T12 /// OR2T33 /// OR2T8 (11738714_s_at) / Fold change /veh OR2T12 /// OR2T33 /// OR2T8 (11738714_s_at) / RFU VCAN (11748164_a_at) / Fold change /veh VCAN (11748164_a_at) / RFU JSRP1 (11732532_at) / Fold change /veh JSRP1 (11732532_at) / RFU KRTAP10-11 (11738290_x_at) / Fold change /veh KRTAP10-11 (11738290_x_at) / RFU MYO3A (11730013_a_at) / Fold change /veh MYO3A (11730013_a_at) / RFU EBF3 (11725865_a_at) / Fold change /veh EBF3 (11725865_a_at) / RFU CAMK2N1 (11719241_x_at) / Fold change /veh CAMK2N1 (11719241_x_at) / RFU C5orf56 (11738088_a_at) / Fold change /veh C5orf56 (11738088_a_at) / RFU OLFML3 (11715873_a_at) / Fold change /veh OLFML3 (11715873_a_at) / RFU LOC100653217 /// NTM (11731650_a_at) / Fold change /veh LOC100653217 /// NTM (11731650_a_at) / RFU MAPK11 (11762145_a_at) / Fold change /veh MAPK11 (11762145_a_at) / RFU FIZ1 (11724087_x_at) / Fold change /veh FIZ1 (11724087_x_at) / RFU OASL (11726364_x_at) / Fold change /veh OASL (11726364_x_at) / RFU SOX15 (11748057_x_at) / Fold change /veh SOX15 (11748057_x_at) / RFU CD79A (11719716_a_at) / Fold change /veh CD79A (11719716_a_at) / RFU HIST1H1D (11736915_at) / Fold change /veh HIST1H1D (11736915_at) / RFU CASKIN2 (11723855_a_at) / Fold change /veh CASKIN2 (11723855_a_at) / RFU LOC730098 (11760151_x_at) / Fold change /veh LOC730098 (11760151_x_at) / RFU OR4N2 (11742367_at) / Fold change /veh OR4N2 (11742367_at) / RFU PRRT2 (11749266_a_at) / Fold change /veh PRRT2 (11749266_a_at) / RFU SNX32 (11753110_a_at) / Fold change /veh SNX32 (11753110_a_at) / RFU CDHR5 (11726645_a_at) / Fold change /veh CDHR5 (11726645_a_at) / RFU RCAN1 (11760418_a_at) / Fold change /veh RCAN1 (11760418_a_at) / RFU FAM167A (11723789_a_at) / Fold change /veh FAM167A (11723789_a_at) / RFU FAM26E (11764081_at) / Fold change /veh FAM26E (11764081_at) / RFU ISYNA1 (11749810_s_at) / Fold change /veh ISYNA1 (11749810_s_at) / RFU ACY1 (11761880_at) / Fold change /veh ACY1 (11761880_at) / RFU 11764098_at / Fold change /veh 11764098_at / RFU SAMD14 (11745864_x_at) / Fold change /veh SAMD14 (11745864_x_at) / RFU NPB (11741838_a_at) / Fold change /veh NPB (11741838_a_at) / RFU TMPRSS6 (11731388_a_at) / Fold change /veh TMPRSS6 (11731388_a_at) / RFU KRTAP10-2 (11738614_at) / Fold change /veh KRTAP10-2 (11738614_at) / RFU ARHGAP8 /// PRR5-ARHGAP8 (11727945_x_at) / Fold change /veh ARHGAP8 /// PRR5-ARHGAP8 (11727945_x_at) / RFU KRTAP5-7 /// NADSYN1 (11734609_at) / Fold change /veh KRTAP5-7 /// NADSYN1 (11734609_at) / RFU RASL12 (11751679_a_at) / Fold change /veh RASL12 (11751679_a_at) / RFU CDKN2B (11736163_a_at) / Fold change /veh CDKN2B (11736163_a_at) / RFU PRF1 (11729649_at) / Fold change /veh PRF1 (11729649_at) / RFU, ZNF638 /// ZNF638-IT1 / Fold change vs veh, ZNF638 /// ZNF638-IT1 / RFU, PANK3 / Fold change vs veh, PANK3 / RFU, SH3YL1 / Fold change vs veh, SH3YL1 / RFU, ZEB2 / Fold change vs veh, ZEB2 / RFU, NRIP1 / Fold change vs veh, NRIP1 / RFU, PTTG1IP / Fold change vs veh, PTTG1IP / RFU, CAPN2 / Fold change vs veh, CAPN2 / RFU, MED14 / Fold change vs veh, MED14 / RFU, SNORA58 / Fold change vs veh, SNORA58 / RFU, C1orf63 / Fold change vs veh, C1orf63 / RFU, LRRFIP1 / Fold change vs veh, LRRFIP1 / RFU, NDUFAF7 / Fold change vs veh, NDUFAF7 / RFU, SLC12A2 / Fold change vs veh, SLC12A2 / RFU, IBTK / Fold change vs veh, IBTK / RFU, ESF1 / Fold change vs veh, ESF1 / Fold change vs veh, TMEM50B / RFU, TAOK1 / Fold change vs veh, TAOK1 / RFU, ACBD3 / Fold change vs veh, ACBD3 / RFU, TMA16 / Fold change vs veh, TMA16 / RFU, RWDD3 / Fold change vs veh, RWDD3 / RFU, BCAT1 / Fold change vs veh, BCAT1 / RFU, EDEM3 / Fold change vs veh, EDEM3 / RFU, TMEM33 / Fold change vs veh, TMEM33 / RFU, WDR75 / Fold change vs veh, WDR75 / RFU, AHCTF1 / Fold change vs veh, AHCTF1 / RFU, TFRC / Fold change vs veh, TFRC / RFU, ZDHHC17 / Fold change vs veh, ZDHHC17 / RFU, NOM1 / Fold change vs veh, NOM1 / RFU, ARL8B / Fold change vs veh, ARL8B / RFU, ZBTB11 / Fold change vs veh, ZBTB11 / RFU, TAMM41 / Fold change vs veh, TAMM41 / RFU, KIAA1704 /// LOC100996395 / Fold change vs veh, KIAA1704 /// LOC100996395 / RFU, ING1 / Fold change vs veh, ING1 / RFU, TRMT61B / Fold change vs veh, TRMT61B / RFU, FUBP3 / Fold change vs veh, FUBP3 / RFU, TP53 / Fold change vs veh, TP53 / RFU, TNKS2 / Fold change vs veh, TNKS2 / RFU, ZFP14 / Fold change vs veh, ZFP14 / RFU, ACTR2 / Fold change vs veh, ACTR2 / RFU, PPP3R1 / Fold change vs veh, PPP3R1 / RFU, PIK3R1 / Fold change vs veh, PIK3R1 / RFU, HNRNPA1 / Fold change vs veh, HNRNPA1 / RFU, RNF170 / Fold change vs veh, RNF170 / RFU, ZNF28 / Fold change vs veh, ZNF28 / RFU, RNGTT / Fold change vs veh, RNGTT / RFU, OGT / Fold change vs veh, OGT / RFU, BRD1 / Fold change vs veh, BRD1 / RFU, MARS / Fold change vs veh, MARS / RFU, ZNF655 / Fold change vs veh, ZNF655 / RFU, FAHD1 / Fold change vs veh, FAHD1 / RFU, BDP1 / Fold change vs veh, BDP1 / RFU, LRRCC1 / Fold change vs veh, LRRCC1 / RFU, ARID1A / Fold change vs veh, ARID1A / RFU, ZNF146 / Fold change vs veh, ZNF146 / RFU, ZNF330 / Fold change vs veh, ZNF330 / RFU, GPN3 / Fold change vs veh, GPN3 / RFU, C9orf123 / Fold change vs veh, C9orf123 / RFU, N4BP2L2 / Fold change vs veh, N4BP2L2 / RFU, ARFIP1 / Fold change vs veh, ARFIP1 / RFU, FAM179B / Fold change vs veh, FAM179B / RFU, BCL10 / Fold change vs veh, BCL10 / RFU, UHRF1BP1L / Fold change vs veh, UHRF1BP1L / RFU, BET1 / Fold change vs veh, BET1 / RFU, CNOT2 / Fold change vs veh, CNOT2 / RFU, ZNF268 / Fold change vs veh, ZNF268 / Fold change vs veh, ZNF507 / RFU, DGCR2 / Fold change vs veh, DGCR2 / RFU, WDSUB1 / Fold change vs veh, WDSUB1 / Fold change vs veh, HSP90B1 /// MIR3652 / RFU, ADSS / Fold change vs veh, ADSS / RFU, GK / Fold change vs veh, GK / RFU, ZNF148 / Fold change vs veh, ZNF148 / RFU, TAF9 / Fold change vs veh, TAF9 / RFU, SLC1A5 / Fold change vs veh, SLC1A5 / RFU, SLMO2 / Fold change vs veh, SLMO2 / RFU, ABCC4 / Fold change vs veh, ABCC4 / RFU, LOC101060439 /// RAP1B / Fold change vs veh, LOC101060439 /// RAP1B / RFU, RFX7 / Fold change vs veh, RFX7 / RFU, GTPBP10 / Fold change vs veh, GTPBP10 / RFU, CNEP1R1 / Fold change vs veh, CNEP1R1 / RFU, BIVM-ERCC5 /// ERCC5 / Fold change vs veh, BIVM-ERCC5 /// ERCC5 / RFU, ILF3 / Fold change vs veh, ILF3 / RFU 11762660_at / Fold change /veh 11762660_at / RFU VCAN (11757783_s_at) / Fold change /veh VCAN (11757783_s_at) / RFU DDX43 (11728927_at) / Fold change /veh DDX43 (11728927_at) / RFU KRT8 (11758188_x_at) / Fold change /veh KRT8 (11758188_x_at) / RFU NKD1 (11759106_at) / Fold change /veh NKD1 (11759106_at) / RFU SRD5A1 (11742802_a_at) / Fold change /veh SRD5A1 (11742802_a_at) / RFU TPSAB1 /// TPSB2 (11721975_s_at) / Fold change /veh TPSAB1 /// TPSB2 (11721975_s_at) / RFU GSTM3 (11746129_a_at) / Fold change /veh GSTM3 (11746129_a_at) / RFU IL23R (11737362_x_at) / Fold change /veh IL23R (11737362_x_at) / RFU TMEM51 (11727254_a_at) / Fold change /veh TMEM51 (11727254_a_at) / RFU PIWIL2 (11732686_x_at) / Fold change /veh PIWIL2 (11732686_x_at) / RFU ORM1 (11744905_x_at) / Fold change /veh ORM1 (11744905_x_at) / RFU CCDC152 (11743942_at) / Fold change /veh CCDC152 (11743942_at) / RFU ECM1 (11717891_a_at) / Fold change /veh ECM1 (11717891_a_at) / RFU IL23R (11748794_a_at) / Fold change /veh IL23R (11748794_a_at) / RFU TNFAIP8L3 (11732012_x_at) / Fold change /veh TNFAIP8L3 (11732012_x_at) / RFU MBOAT4 (11741988_at) / Fold change /veh MBOAT4 (11741988_at) / RFU 11764193_at / Fold change /veh 11764193_at / RFU TMEM53 (11763286_at) / Fold change /veh TMEM53 (11763286_at) / RFU MAGEB2 (11727129_at) / Fold change /veh MAGEB2 (11727129_at) / RFU TMEM200A (11744735_a_at) / Fold change /veh TMEM200A (11744735_a_at) / RFU CCDC152 (11751479_a_at) / Fold change /veh CCDC152 (11751479_a_at) / RFU FAM211A (11726209_a_at) / Fold change /veh FAM211A (11726209_a_at) / RFU RGS16 (11746705_a_at) / Fold change /veh RGS16 (11746705_a_at) / RFU VCAN (11755009_s_at) / Fold change /veh VCAN (11755009_s_at) / RFU RHOB (11743442_s_at) / Fold change /veh RHOB (11743442_s_at) / RFU RGS16 (11720943_a_at) / Fold change /veh RGS16 (11720943_a_at) / RFU RGS16 (11720944_at) / Fold change /veh RGS16 (11720944_at) / RFU, VPS4B / Fold change vs veh, VPS4B / RFU, CREB1 / Fold change vs veh, CREB1 / RFU, DNAJC13 / Fold change vs veh, DNAJC13 / RFU, GNAQ / Fold change vs veh, GNAQ / RFU, CDK5R1 / Fold change vs veh, CDK5R1 / RFU, ZRANB3 / Fold change vs veh, ZRANB3 / RFU, CUL4A / Fold change vs veh, CUL4A / RFU, CCNY / Fold change vs veh, CCNY / RFU, UFL1 / Fold change vs veh, UFL1 / RFU, COG3 / Fold change vs veh, COG3 / RFU, DIAPH2 / Fold change vs veh, DIAPH2 / RFU, SKA2 / Fold change vs veh, SKA2 / RFU, AFF3 / Fold change vs veh, AFF3 / RFU, LMF1 / Fold change vs veh, LMF1 / RFU, IPO11 / Fold change vs veh, IPO11 / RFU, DFFB / Fold change vs veh, DFFB / RFU, FOXP1 / Fold change vs veh, FOXP1 / RFU, CARD8 / Fold change vs veh, CARD8 / RFU, STRN3 / Fold change vs veh, STRN3 / RFU, ADK / Fold change vs veh, ADK / RFU, RASSF2 / Fold change vs veh, RASSF2 / RFU, WIPF1 / Fold change vs veh, WIPF1 / RFU, LARP1B / Fold change vs veh, LARP1B / RFU, RASA1 / Fold change vs veh, RASA1 / RFU, RB1 / Fold change vs veh, RB1 / RFU, PPFIA1 / Fold change vs veh, PPFIA1 / RFU, MAT2A / Fold change vs veh, MAT2A / RFU, CCT5 / Fold change vs veh, CCT5 / RFU, WDR92 / Fold change vs veh, WDR92 / RFU, CUX1 / Fold change vs veh, CUX1 / RFU, TTC7A / Fold change vs veh, TTC7A / RFU, TMEM135 / Fold change vs veh, TMEM135 / RFU, DEPTOR / Fold change vs veh, DEPTOR / RFU, CPM / Fold change vs veh, CPM / RFU, DNAJB6 / Fold change vs veh, DNAJB6 / RFU, CACNA2D3 / Fold change vs veh, CACNA2D3 / RFU, DTX4 / Fold change vs veh, DTX4 / RFU, TFCP2 / Fold change vs veh, TFCP2 / RFU, GMCL1 /// GMCL1P1 / Fold change vs veh, GMCL1 /// GMCL1P1 / RFU, AEBP2 / Fold change vs veh, AEBP2 / RFU, SNHG1 /// SNORD22 /// SNORD25 /// SNORD26 /// SNORD27 /// SNORD28 /// SNORD29 /// SNORD31 / Fold change vs veh, SNHG1 /// SNORD22 /// SNORD25 /// SNORD26 /// SNORD27 /// SNORD28 /// SNORD29 /// SNORD31 / Fold change (Aza/veh), C12orf56 (ProbeSet 11735607_a_at) / Fold change (ACY-1035/veh), C12orf56 (ProbeSet 11735607_a_at) / Fold change (Aza/veh), FGFR1OP (ProbeSet 11751329_s_at) / Fold change (ACY-1035/veh), FGFR1OP (ProbeSet 11751329_s_at) / Fold change (Aza/veh), VPS36 (ProbeSet 11739960_a_at) / Fold change (ACY-1035/veh), VPS36 (ProbeSet 11739960_a_at) / RFU SYPL1 (11715823_x_at) / Fold change /veh SYPL1 (11715823_x_at) / RFU IGFBP7 (11715501_s_at) / Fold change /veh IGFBP7 (11715501_s_at) / RFU REEP3 (11722064_at) / Fold change /veh REEP3 (11722064_at) / RFU IGLL1 (11728026_x_at) / Fold change /veh IGLL1 (11728026_x_at): dose or concentration left out as unconfirmed
Settings: ProbeSet 11724877_a_at; LIST D

Nc1ccc(-c2cccs2)cc1NC(=O)c1ccc2c(c1)cc(C1CC1)n2CCN1CCOCC1 [ACY-1035]
RFU, AEBP2: 30.16 RFU
